# In patent US20210029991A1, “TRISILOXANE ALKOXYLATE COMPOSITIONS” (Momentive Performance Materials Inc., priority 2018, published 2021):
# Several values for one entry are separate records, joined by “and”; a condition that tells them apart may be missing. Equal entries are not always repeated.
# Assays:
# bean leaf (Vicia faba) = assay: Uptake (stomatal infiltration) of ^14C-glyphosate isopropylamine salt into bean leaf; assay type: in vivo
# Method: The impact of the TSA-1/TSA-2 blends on the uptake of ^14C-glyphosate (herbicide) solutions into bean leaf (Vicia fava) was determined at 10 minutes after application, according to the method described by Stevens et al., Contributions of stomatal infiltration and cuticular penetration to enhancements of foliar uptake by surfactants. […]. Sci., 33, 371-382, to establish the contribution of trisiloxane alkoxylate (TSA) surfactants on the speed of uptake, via stomatal infiltration). Here glyphosate solutions containing 0.4% TSA surfactant was applied to bean leaf using a micro-syringe. At 10 minutes after application, the leaf was washed with aqueous ethanol and uptake was determined by subtraction, using a scintillation counter to measure residual ^14C-glyphosate-IPA salt (Stevens et al. […]. Sci., 33, 371-382). The uptake by stomatal infiltration of ^14C-glyphosate-isopropyl amine salt into bean-leaf (Vicia faba) at 10 minutes after application was determined as outlined in Example 4.
# [1] = Dynamic surface tension (Kruss Maximum Bubble Pressure tensiometer); assay type: physicochemical; conditions: 0.4 wt % in deionized water
# Method: Dynamic surface tension (DST) was measured using a Kruss Maximum Bubble Pressure tensiometer. TSA solutions were prepared at 0.4 wt % in deionized water, further purified with a Milli-Q ultrapure filtration system (Millipore Corp.). The data for surface tension vs time (milliseconds) was plotted and then the surface tension was calculated from a trend line to generate surface tension data at 75, 100, 150 and 200 milliseconds (mSec).
smiles,measurement,setting,value
C[Si](C)(C)O[Si](C)(CCCOCCOCCOCCOCCOCCOCCOCCOCCO)O[Si](C)(C)C [TSA-1-B],Uptake (%) Observed,"bean leaf (Vicia faba); ^14C-glyphosate into bean, 0.4% TSA adjuvant, 10 minutes after application",79.3 ab % and 90.2 a % and 88.0 ab % and 85.9 a %
same,Uptake (%) Predicted,"bean leaf (Vicia faba); weighted average of the components, 0.4% adjuvant, 10 minutes",79.3% and 90.2% and 88.0% and 85.9%
same,"Dynamic Surface Tension, IFDT 75 mSec",[1]; calculated from trend line at 75 mSec,49.5 mN/m
same,"Dynamic Surface Tension, IFDT 100 mSec",[1]; calculated from trend line at 100 mSec,47.6 mN/m
same,"Dynamic Surface Tension, IFDT 150 mSec",[1]; calculated from trend line at 150 mSec,43.9 mN/m
same,"Dynamic Surface Tension, IFDT 200 mSec",[1]; calculated from trend line at 200 mSec,40.1 mN/m
